These results are taken from US5710244A, “Derivatized calcitonins” (priority 1993, dated 1998).

Bridge positions count the residues as written; N and C are the ends. * marks the point of attachment. Pyrazinecarbonyl = O=C(c1cnccn1)*

The subject of one test is serum calcium in mice. In words: In vivo effect on serum calcium levels in mice. The following applies: Swiss-Webster male mice, single subcutaneous injection, 100 ng/ml, 1 μg/ml, 10 μg/ml; 0, 1 and 4 hours; FIGS. 1 and 2. The protocol: The biological activity of bipyridine-calcitonin in vivo was measured as the ability of BP4,4 -CT to lower serum calcium in mice as compared to the action of salmon calcitonin. Six-week old Swiss-Webster male mice (12 to 18 grams) were given single, subcutaneous injections of BP4,4 -CT, salmon calcitonin or vehicle. Blood samples for serum calcium measurements were collected from orbital sinus punctures at timed intervals of 0, 1 and 4 hours after injection. Serum calcium was analyzed using a Dacos Excel Analyzer (Coulter Electronics Company, Hialeah, Fla.). The compounds were given at the following doses with eight mice randomly assigned to each of the following groups: […]

For test [1], the system named is endogenous hamster calcitonin receptor. In words: CRE-linked luciferase (cyclic AMP) induction in BHK cells expressing endogenous hamster calcitonin receptor. In kind it is cell-based. Conditions: for % SCT EC50, Hamster CT receptor: EC50 as % of salmon calcitonin (SCT) EC50, CRE-luciferase, BHK cells, 4 h induction. On the procedure:
A BHK cell line expressing the endogenous hamster calcitonin receptor was transfected with plasmid KZ10-20-48 to provide the CRE-inducible luciferase receptor described above. The transfected cells were cultured in selective growth medium containing both 500 μg/mL G418-neomycin and 250 nM methotrexate.
Cells expressing the calcitonin receptor were assayed in triplicate for the induction of the CRE-linked luciferase response to salmon calcitonin (SCT) and derivatized calcitonins at concentrations ranging from 10^-13 M to 10^-6 M. MICROLITE flat bottom tissue culture plates (Baxter Scientific Products, Chicago, Ill.) were set up such that each well contained 2×10^4 cells in 100 μl of selection media, and the cells were grown overnight. SCT and GF43 were prepared at 2X the final assay concentration to give 10^-13 to 10^-6 M in growth medium. Induction was initiated by removing old medium from the wells and adding 100 μl of fresh growth medium and 100 μl of either 2X solution in triplicate sample wells. Uninduced luciferase levels were determined in triplicate wells to which 100 μl of DMEM containing 10% fetal calf serum was added. The plates were incubated for four hours at 37° C., 5% CO2 to allow induction of luciferase. Following induction, the media were removed, and the wells were washed once with 200 μl/well PBS. After the wash, 20 μl of a 1:5 dilution (in sterile water) of the stock Cell Culture Lysis Reagent (Luciferase Assay System, Promega Corp., Madison, Wis.) was added to each well, and the plates were incubated for 15 minutes at room temperature. The plates were transferred to a Labsystems Luminoskan microtiter luminometer (Labsystems Inc., Morton Grove, Ill.) which added 40 μl of Luciferase Assay Substrate (Luciferase Assay System, Promega), mixed the reaction for three seconds and integrated the luciferase signal for two seconds per well. The fold induction of luciferase for each compound was calculated as follows:
Fold induction=Induced signal-Uninduced signal Uninduced signal

Test [2] deals with T1, recombinant human calcitonin receptor (Homo sapiens, UniProt P30988).
T1 construct: expressed in transfected cells; host or cells: BHK/KZ10-20-48 (BHK cells carrying a CRE-luciferase reporter) transfected with pHOLLEX (ATCC 69067)
T1 sequence (P30988 25-474): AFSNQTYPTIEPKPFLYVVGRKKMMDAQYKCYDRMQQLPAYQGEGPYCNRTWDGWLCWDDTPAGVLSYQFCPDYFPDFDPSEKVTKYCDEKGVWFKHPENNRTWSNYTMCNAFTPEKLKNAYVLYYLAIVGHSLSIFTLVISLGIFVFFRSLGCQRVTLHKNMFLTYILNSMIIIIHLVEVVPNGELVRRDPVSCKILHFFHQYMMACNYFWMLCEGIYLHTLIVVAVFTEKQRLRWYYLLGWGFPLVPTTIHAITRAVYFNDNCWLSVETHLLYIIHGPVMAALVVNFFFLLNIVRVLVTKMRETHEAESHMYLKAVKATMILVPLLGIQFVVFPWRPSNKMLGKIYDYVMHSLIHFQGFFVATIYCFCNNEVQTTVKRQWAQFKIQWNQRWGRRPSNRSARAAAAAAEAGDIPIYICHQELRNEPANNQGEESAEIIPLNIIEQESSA
In words: CRE-linked luciferase (cyclic AMP) induction in BHK/KZ10-20-48 cells expressing recombinant human calcitonin receptor. It is filed as cell-based. The following applies: for % SCT EC50, Human CT receptor: EC50 as % of salmon calcitonin (SCT) EC50, CRE-luciferase, BHK/KZ10-20-48 cells, 4 h induction; for activity / potency compared with human calcitonin: text summary of the Table (hamster and human CT receptor).
Experimental: BHK/KZ10-20-48 is a BHK cell line transfected with a plasmid containing a luciferase gene whose expression is dependent upon a cyclic AMP response element (CRE), which induces expression of downstream coding sequences in the presence of cyclic AMP. […] The vector without the calcitonin receptor was used to transfect the cell line BHK/KZ10-20-48 for a negative control. The transfectants were grown in a selective growth medium (Dulbecco's Modified Eagle Medium (DMEM) with 5% serum) containing both 500 μg/ml G418-neomycin and 250 nM methotrexate.
Cells expressing the calcitonin receptor were assayed in triplicate for the induction of the CRE-linked luciferase response to salmon calcitonin (SCT) and derivatized calcitonins at concentrations ranging from 10^-13 M to 10^-6 M. MICROLITE flat bottom tissue culture plates (Baxter Scientific Products, Chicago, Ill.) were set up such that each well contained 2×10^4 cells in 100 μl of selection media, and the cells were grown overnight. […] Induction was initiated by removing old medium from the wells and adding 100 μl of fresh growth medium and 100 μl of either 2X solution in triplicate sample wells. Uninduced luciferase levels were determined in triplicate wells to which 100 μl of DMEM containing 10% fetal calf serum was added. The plates were incubated for four hours at 37° C., 5% CO2 to allow induction of luciferase. Following induction, the media were removed, and the wells were washed once with 200 μl/well PBS. After the wash, 20 μl of a 1:5 dilution (in sterile water) of the stock Cell Culture Lysis Reagent (Luciferase Assay System, Promega Corp., Madison, Wis.) was added to each well, and the plates were incubated for 15 minutes at room temperature. The plates were transferred to a Labsystems Luminoskan microtiter luminometer (Labsystems Inc., Morton Grove, Ill.) which added 40 μl of Luciferase Assay Substrate (Luciferase Assay System, Promega), mixed the reaction for three seconds and integrated the luciferase signal for two seconds per well. The fold induction of luciferase for each compound was calculated as follows:

Test [3] addresses T2, recombinant human calcitonin receptor (human, UniProt P30988).
T2 sequence: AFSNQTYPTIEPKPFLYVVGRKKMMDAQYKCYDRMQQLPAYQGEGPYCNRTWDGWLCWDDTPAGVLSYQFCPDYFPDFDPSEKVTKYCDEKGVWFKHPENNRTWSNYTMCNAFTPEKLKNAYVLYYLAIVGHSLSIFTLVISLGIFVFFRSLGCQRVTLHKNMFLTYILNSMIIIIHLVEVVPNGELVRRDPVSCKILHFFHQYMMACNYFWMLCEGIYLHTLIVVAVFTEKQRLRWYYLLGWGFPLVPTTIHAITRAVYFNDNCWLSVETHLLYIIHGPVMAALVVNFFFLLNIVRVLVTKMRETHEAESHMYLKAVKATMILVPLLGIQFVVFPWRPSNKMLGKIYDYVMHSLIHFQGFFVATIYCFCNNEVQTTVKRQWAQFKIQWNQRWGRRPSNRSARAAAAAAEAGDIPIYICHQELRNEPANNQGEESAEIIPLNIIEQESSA
Briefly: cell-based or functional assay.

In test [4] the target is endogenous hamster calcitonin receptor (hamster).

As to `CC(C)C[C@H](NC(=O)[C@H](CCCCN)NC(=O)CNC(=O)[C@H](CC(C)C)NC(=O)[C@@H](NC(=O)[C@@H]1CSSC[C@H](N)C(=O)N[C@@H](CO)C(=O)N[C@@H](CC(N)=O)C(=O)N[C@@H](CC(C)C)C(=O)N[C@@H](CO)C(=O)N[C@@H]([C@@H](C)O)C(=O)N1)C(C)C)C(=O)N[C@@H](CO)C(=O)N[C@@H](CCC(N)=O)C(=O)N[C@@H](CCC(=O)O)C(=O)N[C@@H](CC(C)C)C(=O)N[C@@H](Cc1c[nH]cn1)C(=O)N[C@@H](CCCCN)C(=O)N[C@@H](CC(C)C)C(=O)N[C@@H](CCC(N)=O)C(=O)N[C@H](C(=O)N[C@@H](Cc1ccc(O)cc1)C(=O)N1CCC[C@H]1C(=O)N[C@@H](CCCNC(=N)N)C(=O)N[C@H](C(=O)N[C@@H](CC(N)=O)C(=O)N[C@H](C(=O)NCC(=O)N[C@@H](CO)C(=O)NCC(=O)N[C@H](C(=O)N1CCC[C@H]1C(N)=O)[C@@H](C)O)[C@@H](C)O)[C@@H](C)O)[C@@H](C)O` [salmon calcitonin, reference compound], the “decrease of serum calcium levels” value with serum calcium in mice is reported as “equally decreased serum calcium levels in a dose-dependent manner”.

With “ZP-2: 2,2'-bipyridine-5,5'-dicarboxylic acid modified salmon calcitonin”, the “% SCT EC50, Hamster CT receptor” value in test [1] is given as 125%.

Turning to “ZP-3: 4-4'-biphenyldicarboxylic acid modified salmon calcitonin”, in test [1], the “% SCT EC50, Hamster CT receptor” value is 341%.

Take `CC(C)C[C@H](NC(=O)[C@H](CCCCN)NC(=O)CNC(=O)[C@H](CC(C)C)NC(=O)[C@@H](NC(=O)[C@@H]1CSSC[C@H](NC(=O)c2ccccn2)C(=O)N[C@@H](CO)C(=O)N[C@@H](CC(N)=O)C(=O)N[C@@H](CC(C)C)C(=O)N[C@@H](CO)C(=O)N[C@@H]([C@@H](C)O)C(=O)N1)C(C)C)C(=O)N[C@@H](CO)C(=O)N[C@@H](CCC(N)=O)C(=O)N[C@@H](CCC(=O)O)C(=O)N[C@@H](CC(C)C)C(=O)N[C@@H](Cc1c[nH]cn1)C(=O)N[C@@H](CCCCN)C(=O)N[C@@H](CC(C)C)C(=O)N[C@@H](CCC(N)=O)C(=O)N[C@H](C(=O)N[C@@H](Cc1ccc(O)cc1)C(=O)N1CCC[C@H]1C(=O)N[C@@H](CCCNC(=N)N)C(=O)N[C@H](C(=O)N[C@@H](CC(N)=O)C(=O)N[C@H](C(=O)NCC(=O)N[C@@H](CO)C(=O)NCC(=O)N[C@H](C(=O)N1CCC[C@H]1C(N)=O)[C@@H](C)O)[C@@H](C)O)[C@@H](C)O)[C@@H](C)O` [ZP-6]: in test [2], the “% SCT EC50, Human CT receptor” value stood at 140%.

As for “ZP-1: salmon calcitonin N-terminally modified with 2,2'-bipyridine-4,4'-dicarboxylic acid”, in test [1], the “% SCT EC50, Hamster CT receptor” value was 73%. For the same molecule, in the test with serum calcium in mice, the “decrease of serum calcium levels” value is reported as “equally decreased serum calcium levels in a dose-dependent manner”.

On to “ZP-7: 2-Pyrazinoyl-modified salmon calcitonin”, for which the “% SCT EC50, Hamster CT receptor” value in test [1] amounted to 155%.

Consider “ZP-10: nipecotic acid modified salmon calcitonin”, for which the “% SCT EC50, Hamster CT receptor” value in test [1] was determined as 152%.

Consider `CC(C)C[C@H](NC(=O)[C@H](CCCCN)NC(=O)CNC(=O)[C@H](CC(C)C)NC(=O)[C@@H](NC(=O)[C@@H]1CSSC[C@H](NC(=O)c2cccnc2)C(=O)N[C@@H](CO)C(=O)N[C@@H](CC(N)=O)C(=O)N[C@@H](CC(C)C)C(=O)N[C@@H](CO)C(=O)N[C@@H]([C@@H](C)O)C(=O)N1)C(C)C)C(=O)N[C@@H](CO)C(=O)N[C@@H](CCC(N)=O)C(=O)N[C@@H](CCC(=O)O)C(=O)N[C@@H](CC(C)C)C(=O)N[C@@H](Cc1c[nH]cn1)C(=O)N[C@@H](CCCCN)C(=O)N[C@@H](CC(C)C)C(=O)N[C@@H](CCC(N)=O)C(=O)N[C@H](C(=O)N[C@@H](Cc1ccc(O)cc1)C(=O)N1CCC[C@H]1C(=O)N[C@@H](CCCNC(=N)N)C(=O)N[C@H](C(=O)N[C@@H](CC(N)=O)C(=O)N[C@H](C(=O)NCC(=O)N[C@@H](CO)C(=O)NCC(=O)N[C@H](C(=O)N1CCC[C@H]1C(N)=O)[C@@H](C)O)[C@@H](C)O)[C@@H](C)O)[C@@H](C)O` [ZP-5], for which the “% SCT EC50, Human CT receptor” value in test [2] is given as 112%.

In the case of “human calcitonin [HCT, reference compound]”, the “% SCT EC50, Hamster CT receptor (× 10^3)” value in test [1] (EC50 as % of SCT EC50, the factor × 10^3 is printed under the HCT value only) is recorded as 5.9 × 10^3%.

Take “ZP-8: isonipecotic acid modified salmon calcitonin”: the “activity / potency compared with human calcitonin” value in test [2] was “greater activity than human calcitonin”. The “% SCT EC50, Hamster CT receptor” value in test [1] worked out at 106%.

As to “ZP-9: DL-pipecolinic acid modified salmon calcitonin”, the “activity / potency compared with human calcitonin” value in test [2] is “greater activity than human calcitonin”. In test [1], the “% SCT EC50, Hamster CT receptor” value was determined as 147%.

B1: 2-Pyrazinoyl-modified calcitonin (peptide)
peptide: Pyrazinecarbonyl-CSNLSTCVLGKLSQELHKLQTYPRTNTGSGTP-NH2
modifications: disulfide 1-7
SMILES: CC(C)C[C@H](NC(=O)[C@H](CCCCN)NC(=O)CNC(=O)[C@H](CC(C)C)NC(=O)[C@@H](NC(=O)[C@@H]1CSSC[C@H](NC(=O)c2cnccn2)C(=O)N[C@@H](CO)C(=O)N[C@@H](CC(N)=O)C(=O)N[C@@H](CC(C)C)C(=O)N[C@@H](CO)C(=O)N[C@@H]([C@@H](C)O)C(=O)N1)C(C)C)C(=O)N[C@@H](CO)C(=O)N[C@@H](CCC(N)=O)C(=O)N[C@@H](CCC(=O)O)C(=O)N[C@@H](CC(C)C)C(=O)N[C@@H](Cc1c[nH]cn1)C(=O)N[C@@H](CCCCN)C(=O)N[C@@H](CC(C)C)C(=O)N[C@@H](CCC(N)=O)C(=O)N[C@H](C(=O)N[C@@H](Cc1ccc(O)cc1)C(=O)N1CCC[C@H]1C(=O)N[C@@H](CCCNC(=N)N)C(=O)N[C@H](C(=O)N[C@@H](CC(N)=O)C(=O)N[C@H](C(=O)NCC(=O)N[C@@H](CO)C(=O)NCC(=O)N[C@H](C(=O)N1CCC[C@H]1C(N)=O)[C@@H](C)O)[C@@H](C)O)[C@@H](C)O)[C@@H](C)O
As to B1, the “% SCT EC50 (CRE-linked luciferase induction)” value came to 158 % SCT EC50 in test [3] and 155 % SCT EC50 in test [4].
